# How the values were obtained:
# [1] = tested on: NIH3T3 cells stably transfected with human EGFR (NIH/EGFR); assay: Binding on NIH/EGFR cells; design: species or system mouse; conditions: [32P]-labeled aptamer at 100 nM; relative to scrambled aptamer
# Experimental: (§1) Human NSCLC A549, epidermoid carcinoma A431, glioma U87MG and T98G, breast SKBr3, MCF7 and T47D and mouse fibroblast NIH3T3 (all from American Type Culture Collection, Manassas, Va.) cells were grown in Dulbecco's modified Eagle medium (DMEM) supplemented with 10% fetal bovine serum (FBS) and 2 mM L-glutamine (Invitrogen, Carlsbad, Calif.). NIH3T3 cells stably transfected with human EGFR (NIH/EGFR) were grown in DMEM with 10% FBS and 2 mM L-glutamine supplemented with 50 μg/ml Gentamycin.
# (§2) Binding experiments were performed with 5′-[^32P]-labeled RNA. For labeling 2′-F-Py RNAs were 5′-end dephosphorylated using bacterial alcaline phosphatase (Invitrogen, Carlsbad, Calif.) before [^32P]-5′-end-labeled using T4 kinase (Invitrogen) and γ-[^32P]-ATP (6×10^3 Ci/mmol, GE Healthcare Bio-Sciences, Uppsala, Sweden) according to the supplier's instructions.
# (§3) For binding experiments on cells, 3.5×10^4 cells were plated in 24-well plates in triplicate and were incubated with CL4 42-81 aptamer the scrambled sequence used as a negative control at 100 nM concentration in 200 μl of DMEM serum free for 20 min at RT in the presence of 100 μg/ml polyinosine as a nonspecific competitor (Sigma, St. Louis, Mo.). After five washings with 500 μl DMEM, bound sequences were recovered in 300 μl of SDS 1%, and the amount of radioactivity recovered was counted.
# breast MCF7 = assay: Binding on MCF7 cells; design: species or system human; conditions: no or very low expression of EGFR; 100 nM
# Experimental: as §2, §3
# [2] = Half life of the aptamer in serum; type: in vitro ADME; conditions: in 10% serum
# caspase-8 = assay: Caspase-8 activity assay in A549 cells; type: cell-based, human; conditions: A549, 200 nM, 6 hs
# Experimental: A549 cells were treated with 200 nM CL4 42-81 or the scrambled aptamer for 6 hs. To determine caspase activity cell lysates (50 μg) were incubated at 37° C. for 1 h with 50 μM of a specific fluorometric substrate (Ac-DEVD-AFC for caspase-3, Ac-IETD-AFC for caspase-8, both from Alexis Bichemicals, San Diego, Calif.). Cleavage of the fluorometric substrate were determined using a Fluorometer, with excitation at 400 nm and emission at 505 nm wavelengths.
# [3] = tested on: epidermoid carcinoma A431 cells; assay: Binding on A431 cells; design: species or system human; conditions: high level of EGFR; 100 nM
# Experimental: as §2, §3
# ERK = assay: Immunoblot of EGF-induced ERK phosphorylation; type: cell-based, human; conditions: data not shown
# Experimental: To assess the effects of aptamers on EGFR activity, A549 cells (1.5×10^5 cells per 3.5-cm plate) were serum-starved over night, pretreated with 200 nM CL4 42-81 aptamer or the scrambled aptamer used as a negative control for 3 h and then stimulated for 30 min with 50 ng/ml EGF (R&D Systems, Minneapolis, Minn.) either alone or in presence of each aptamer. The aptamers were subjected to a short denaturation-renaturation step (85° C. for 5 min, snap-cooled on ice for 2 min, and allowed to warm up to 37° C.) before each treatment. To prepare cell extracts, cells were washed twice in ice-cold PBS, and lysed in buffer A (50 mM Tris-HCl pH 8.0 buffer containing 150 mM NaCl, 1% Nonidet P-40, 2 mg/ml aprotinin, 1 mg/ml pepstatin, 2 mg/ml leupeptin, 1 mM Na3VO4). Protein concentration was determined by the Bradford assay using bovine serum albumin as the standard. The cell lysates were subjected to SDS-PAGE. […]
# caspase-3 = assay: Caspase-3 in A549 xenograft tumor lysates; type: in vivo, mouse; conditions: pooled tumor lysates
# Experimental: FIG. 8. (A) A549 cells (2,000 cells/well in 24-well plates) were treated for 24 h or 48 h with CL4 42-81 or CL4 scrambled (200 nM-final concentration) and proliferation was determined by [^3H]-thymidine incorporation. Vertical bars indicate the standard deviation values. […] Day 0 marks the first day of injection. Data are shown as means±s.e.m. (n=8 tumors). (C) Three tumors per group selected randomly were excised, lysed, and the pooled lysates were immunoblotted with anti-pEGFR, anti-EGFR, anti-caspase-3, anti-cleaved caspase-8 and anti-αtubulin antibodies, as indicated. Molecular weights of indicated proteins are reported. (D) Cell lysates as in (C) were analyzed by caspase-3 fluorimetric assays.
# Athymic CD-1 nude mice (nu/nu) were housed in a highly controlled microbiological environment, thus to guarantee specific pathogen free conditions. Mice were injected subcutaneously with 3×10^6 (in 100 μl) in vitro propagated A549. Sixteen non-necrotic tumors of about 0.5 cm in diameter were randomly divided into two groups of eight mice as follows: group 1, CL4 scrambled-treated; group 2, CL4 42-81-treated. Aptamers (200 pmols/injection) were injected intra-tumorally in 100-1 μl volumes three times a week for 16 days. Tumors were measured every 2 days.
# glioma T98G = assay: Binding on T98G cells; design: species or system human; conditions: high level of EGFR; 100 nM
# Experimental: as §2, §3
# breast T47D = assay: Binding on T47D cells; design: species or system human; conditions: no or very low expression of EGFR; 100 nM
# Experimental: as §2, §3
# NIH3T3 cells = assay: Binding on parental NIH3T3 cells; design: species or system mouse; conditions: [32P]-labeled aptamer at 100 nM; relative to scrambled aptamer
# Experimental: as §1, §2, §3
substance,measurement,setting,value
"CL4 42-81: 2′-fluoropyrimidine nuclease-resistant RNA aptamer of 39 nt: 5′ GCCUUAGUAACGUGCUUUGAUGUCGAUUCGACAGGAGGC 3′ (SEQ ID No. 1) (2'-fluoro at CU, RNA at AG, backbone not given here)",binding on NIH/EGFR cells,[1],binds
same,binding on MCF7 cells,breast MCF7,does not bind
same,half life of the aptamer,[2],6 h
same,activation of caspase-8,caspase-8,strongly induce activation
same,binding on A431 cells,[3],binds
same,EGF-induced phosphorylation of ERK,ERK,decreases
same,caspase-3 activation in xenograft tumors,caspase-3,activates
same,binding on T98G cells,glioma T98G,binds
same,binding on T47D cells,breast T47D,does not bind
same,binding on parental NIH3T3 cells,NIH3T3 cells,does not binding

# — US9125930B2, “EGFR aptamer inhibitor for use in therapy and diagnosis” (CONSIGLIO NAZIONALE DELLE RICERCHE, priority 2010, dated 2015)
